From US8193189B2, “Quinoxaline derivatives as tyrosine kinase activity inhibitors” (Novartis AG, priority 2007, dated 2012) come the findings set out here.

Some results are limits rather than exact numbers.

The target in one test is T1, GST-JAK3(811-1124) (Homo sapiens, UniProt P52333).
T1 construct: GST-JAK3(811-1124); made in house
Nature of the test: EPK JAK-family kinases profiling assay (Caliper mobility shift), JAK3. In kind it is biochemical. The conditions noted are these: ATP 80 μM, 6 nM kinase. The source says:
(§1) All four kinases of the JAK-family kinases were used as purified recombinant GST-fusion proteins, containing the active kinase domains. GST-JAK1(866-1154), GST-JAK3(811-1124), and GST-TYK2(888-1187) were expressed and purified by affinity chromatography at the EPK biology unit. GST-JAK2(808-1132) was purchased from Invitrogen (Carlsbad, USA, #4288).
(§2) The kinase assays were based on the Caliper mobility shift assay using the LabChip 3000 systems. This technology is similar to capillary electrophoresis and uses charge driven separation of substrate and product in a microfluidic chip.
(§3) All kinase reactions were performed in 384 well microtiter plates in a total reaction volume of 18 μl. The assay plates were prepared with 0.1 μl per well of test compound in the appropriate test concentration, as described under the section “preparation of compound dilutions”. The reactions were started by combining 9 μl of substrate mix (consisting of peptide and ATP) with 9 μl of kinase dilution. The reactions were incubated for 60 minutes at 30° C. and stopped by adding 70 μl of stop buffer (100 mM Hepes, 5% DMSO, 0.1% Coating reagent, 10 mM EDTA, 0.015% Brij 35).
(§4) Fluorescently labeled synthetic peptides were used as substrates in all reactions. […] Specific assay conditions are described in Table 1:
(§5) The terminated reactions were transferred to the Caliper LabChip 3000 reader and the turnover of each reaction was measured by determining the substrate/product ratio.
(§6) Test compounds were dissolved in DMSO (10 mM) and transferred into 1.4 mL flat bottom or V-shaped Matrix tubes carrying a unique 2D matrix chip by individual compound hubs. The numbers of these chips were distinctively linked to the individual compound identification numbers. The stock solutions were stored at −20° C. if not used immediately. For the test procedure the vials were defrosted and identified by a scanner whereby a working sheet was generated that guided the subsequent working steps.
(§7) Compound dilutions were made in 96 well plates. This format enabled the assay of maximally 40 individual test compounds at 8 concentrations (single points) including 4 reference compounds. The dilution protocol included the production of pre-dilution plates, master plates and assay plates:
(§8) Pre-dilution plates: 96 polypropylene well plates were used as pre-dilution plates. A total of 4 pre-dilution plates were prepared including 10 test compounds each on the plate positions A1-A10, one standard compound at A11 and one DMSO control at A12. All dilution steps were done on a HamiltonSTAR robot.
(§9) Master plates: 100 μL of individual compound dilutions including standard compound and controls of the 4 “pre-dilution plates” were transferred into a 384 “master plate” including the following concentrations 1′820, 564, 182, 54.6, 18.2, 5.46, 1.82 and 0.546 μM, respectively in 90% of DMSO.
(§10) Assay plates: Identical assay plates were then prepared by pipetting 100 nL each of compound dilutions of the master plates into 384-well “assay plates”. […] The preparation of the master plates were handled by the Matrix PlateMate Plus robot and replication of assay plates by the HummingBird robot.

In test [1] the test system is JAK/STAT pathway (JAK1/JAK2-dependent nuclear translocation of STAT1-GFP). As to the kind of experiment: Inhibition of the JAK/STAT pathway: IFN-γ stimulated nuclear translocation of STAT1-GFP in HT1080 fibrosarcoma cells. The test is classed as cell-based. As to conditions: Homo sapiens, HT-1080; HT1080 STAT1-GFP cells, 100 ng/ml IFN-γ 2 hours, compound added 30 min before; read-out: STAT1translo IC50. An excerpt: The medium-throughput (96-well format), robust and reproducible cellular assay can be routinely used to assess the functional activation of Janus Kinases (JAKs), based on the nuclear translocation of their substrate, Signal Transducer and Activator of Transcription (STAT). Nuclear translocation can be monitored in HT1080 fibrosarcoma cells stably transfected with STAT1 fused to Green Fluorescence Protein (GFP). Stimulation with interferon-γ (IFN-γ) results in JAK1/JAK2-dependent nuclear translocation of STAT1-GFP that can be quantified using the Cellomics Cyto/NucTrans software package. This assay may be used to provide an assessment of the nuclear-cytoplasmic differential (NCD) of GFP-STAT1 using Hoechst dye to define the boundaries of the nucleus.
Compounds can be dissolved in DMSO to a final stock concentration of 10 mM and stored as aliquots at 4° C. Compounds may be pre-diluted in 100% DMSO at 10 mM, 3 mM 1 mM, 0.3 mM, 0.1 mM, 0.03 mM, 0.01 mM and 0.003 mM. Subsequently, compounds may be diluted in medium and added in 50 μl to the cells. The final compound concentrations tested may be 10 μM, 3 μM 1 μM, 0.3 μM, 0.1 μM, 0.03 μM, 0.01 μM and 0.003 μM and the final DMSO concentration can be 0.1%.
The plates may then be washed once in PBS, and 200 μl PBS finally added per well. The plates, being finally covered with a black adhesive, may be either read directly or stored at 4° C. for later imaging. Where appropriate, the compounds may be added 30 min before stimulation with IFN-γ.
The plates can be read on a Cellomics® ArrayscanII automated fluorescence microscope plate reader equipped with a Mercury-Xenon white light illumination source and a Zeiss Axiovert inverted microscope, using the XF100 dichroic/emission filter cube and matching excitation filters, 10× magnification, and a 0.3 numerical aperture objective. Image acquisition and analysis can be performed using a customized protocol based on the ‘NuclearTranslocation’ Bioapplication (for details, see Appendices). For each well, multiple images (fields) can be acquired until a minimum of 1000 cells are counted using two 2 channels: Channel 1 (Hoechst)=focus+nuclear mask, Channel 2 (GFP)=signal quantification in mask areas as outlined below.
Nuclei may be first identified based on the Hoechst staining and a mask generated for each nucleus that then serves as a template to generate a circle (eroded inwards by 1 pixel) and a 3 pixel-wide collar-like ring (off-set outwards by 1 pixel), in which the nuclear and cytoplasmic intensity of GFP, respectively, are quantified in the corresponding channel. High content analysis yields numerous measurements per cell and the GPF intensity differential between the nuclear and the cytoplasmic masks may be chosen as a measure of sub-cellular GFP-STAT1 relocation. The resulting values may be averaged for all cells in the well to return a single measurement plus standard deviation.

In another test the target is T2, GST-JAK2(808-1132) (Homo sapiens, UniProt O60674).
T2 construct: GST-JAK2(808-1132); purchased Invitrogen (Carlsbad, USA) #4288
Nature of the test: EPK JAK-family kinases profiling assay (Caliper mobility shift), JAK2. In kind it is biochemical. As to conditions: ATP 20 μM, 1.8 nM kinase.
Description: as §1, §2, §3, §4, §5, §6, §7, §8, §9, §10

The target in another test is T3, GST-JAK1(866-1154) (Homo sapiens, UniProt P23458).
T3 construct: GST-JAK1(866-1154); made in house
Nature of the test: EPK JAK-family kinases profiling assay (Caliper mobility shift), JAK1. The test is classed as biochemical. As to conditions: ATP 40 μM, 50 nM kinase.
Description: as §1, §2, §3, §4, §5, §6, §7, §8, §9, §10

T1 sequence (P52333 811-1124): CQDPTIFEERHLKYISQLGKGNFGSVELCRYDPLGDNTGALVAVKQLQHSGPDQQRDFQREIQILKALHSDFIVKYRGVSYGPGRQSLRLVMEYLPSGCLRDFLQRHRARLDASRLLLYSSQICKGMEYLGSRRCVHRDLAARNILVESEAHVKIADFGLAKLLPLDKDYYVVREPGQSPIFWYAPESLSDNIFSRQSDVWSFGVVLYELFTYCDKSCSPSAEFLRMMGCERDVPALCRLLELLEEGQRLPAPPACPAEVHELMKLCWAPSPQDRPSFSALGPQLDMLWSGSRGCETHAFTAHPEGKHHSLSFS
T2 sequence (O60674 808-1132): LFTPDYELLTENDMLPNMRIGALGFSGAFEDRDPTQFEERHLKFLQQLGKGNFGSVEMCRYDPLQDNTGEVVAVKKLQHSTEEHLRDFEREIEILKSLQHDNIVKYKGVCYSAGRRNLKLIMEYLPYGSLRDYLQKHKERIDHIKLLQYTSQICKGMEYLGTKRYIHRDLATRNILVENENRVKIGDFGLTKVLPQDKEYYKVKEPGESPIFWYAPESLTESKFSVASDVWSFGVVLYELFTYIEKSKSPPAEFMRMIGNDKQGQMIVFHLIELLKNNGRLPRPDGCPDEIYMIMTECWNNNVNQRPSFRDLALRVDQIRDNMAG
T3 sequence (P23458 866-1154): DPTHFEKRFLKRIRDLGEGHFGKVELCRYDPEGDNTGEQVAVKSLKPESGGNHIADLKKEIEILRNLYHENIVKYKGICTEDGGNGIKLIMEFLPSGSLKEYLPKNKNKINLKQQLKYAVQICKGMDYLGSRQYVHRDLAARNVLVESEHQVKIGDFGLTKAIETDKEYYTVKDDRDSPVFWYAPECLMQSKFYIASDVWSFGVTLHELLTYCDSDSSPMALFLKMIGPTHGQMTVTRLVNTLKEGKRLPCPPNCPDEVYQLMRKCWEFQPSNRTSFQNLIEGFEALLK

As a reminder, the IC50 is the concentration that inhibits the measured activity by half. Turning to `CCOc1ccc(-c2cnc3cccc(-c4ccc(CN5CCS(=O)(=O)CC5)c(C)c4)c3n2)cc1OCC` [Example 32, 2-(3,4-Diethoxy-phenyl)-8-[4-(1,1-dioxido-thiomorpholin-4-ylmethyl)-3-methyl-phenyl]-quinoxaline], the IC50 came to 2.7 µM at GST-JAK3(811-1124), 7.79 µM in test [1], 0.084 µM at GST-JAK2(808-1132) and 0.57 µM at GST-JAK1(866-1154).

Turning to `COc1cc(-c2cnc3cccc(-c4ccc(NS(C)(=O)=O)cc4)c3n2)ccc1OCCN1CCOCC1` [Example 36, N-(4-{3-[3-Methoxy-4-(2-morpholin-4-yl-ethoxy)-phenyl]-quinoxalin-5-yl}-phenyl)-methanesulfonamide], the IC50 stood at 0.94 µM at GST-JAK3(811-1124), 3.86 µM in test [1], 0.017 µM at GST-JAK2(808-1132) and 0.041 µM on GST-JAK1(866-1154).

Consider `COc1cc(-c2cnc3cccc(-c4ccc(CS(C)(=O)=O)cc4)c3n2)ccc1OCCN1CCOCC1` [Example 37, 8-(4-Methanesulfonylmethyl-phenyl)-2-[3-methoxy-4-(2-morpholin-4-yl-ethoxy)-phenyl]-quinoxaline], for which the half-inhibitory concentration (IC50) came to 0.78 µM on GST-JAK3(811-1124), 3.08 µM in test [1], 0.014 µM on GST-JAK2(808-1132) and 0.068 µM at GST-JAK1(866-1154).

`Cc1cc(-c2cnc3cccc(-c4ccc(CN5CCS(=O)(=O)CC5)cc4)c3n2)ccc1C(=O)N1CCN(C)CC1` [Example 40, (4-{8-[4-(1,1-Dioxido-thiomorpholin-4-ylmethyl)-phenyl]-quinoxalin-2-yl}-2-methyl-phenyl)-(4-methyl-piperazin-1-yl)-methanone]: the concentration for half-maximal inhibition (IC50) at GST-JAK3(811-1124) was determined as 0.627 µM; in test [1] it was 0.16 µM; at GST-JAK2(808-1132), 0.0073 µM; on GST-JAK1(866-1154), 0.0784 µM.

For `Cc1cc(-c2cnc3cccc(-c4ccc(CC(=O)N5CCOCC5)cc4)c3n2)ccc1C(=O)N1CCN(C)CC1` [Example 41, 2-(4-{3-[3-Methyl-4-(4-methyl-piperazine-1-carbonyl)-phenyl]-quinoxalin-5-yl}-phenyl)-1-morpholin-4-yl-ethanone], the IC50 at GST-JAK3(811-1124) stood at 0.64 µM; in test [1], 0.346 µM; on GST-JAK2(808-1132) it was 0.0063 µM; at GST-JAK1(866-1154), 0.13 µM.

As to `O=C(Cc1ccc(-c2cccc3ncc(-c4ccc(N5CCOCC5)cc4)nc23)cc1)N1CCOCC1` [Example 45, 1-Morpholin-4-yl-2-{4-[3-(4-morpholin-4-yl-phenyl)-quinoxalin-5-yl]-phenyl}-ethanone], the half-inhibitory concentration (IC50) at GST-JAK3(811-1124) worked out at 2.2 µM; in test [1], 2.4 µM; at GST-JAK2(808-1132) it was 0.03 µM; at GST-JAK1(866-1154) it was 0.19 µM.

As for `Cc1cc(-c2cccc3ncc(-c4ccc(N5CCOCC5)cc4)nc23)ccc1C(=O)N1CCOCC1` [Example 46, {2-Methyl-4-[3-(4-morpholin-4-yl-phenyl)-quinoxalin-5-yl]-phenyl}-morpholin-4-yl-methanone], the IC50 amounted to 1.6 µM at GST-JAK3(811-1124), 2.82 µM in test [1], 0.02 µM at GST-JAK2(808-1132) and 0.11 µM at GST-JAK1(866-1154).

For `COCCOc1ccc(-c2cnc3cccc(-c4ccc(CN5CCS(=O)(=O)CC5)c(F)c4)c3n2)cc1OC` [Example 48, 8-[4-(1,1-Dioxido-thiomorpholin-4-ylmethyl)-3-fluoro-phenyl]-2-[3-methoxy-4-(2-methoxy-ethoxy)-phenyl]-quinoxaline], the 50% inhibitory concentration (IC50) on GST-JAK3(811-1124) was 0.077 µM; in test [1], 0.15 µM; at GST-JAK2(808-1132) it was less than 0.003 µM; at GST-JAK1(866-1154), 0.0099 µM.

As for `COCCOc1ccc(-c2cnc3cccc(-c4ccc(CC(=O)N5CCOCC5)c(F)c4)c3n2)cc1OC` [Example 49, 2-(2-Fluoro-4-{3-[3-methoxy-4-(2-methoxy-ethoxy)-phenyl]-quinoxalin-5-yl}-phenyl)-1-morpholin-4-yl-ethanone], the IC50 on GST-JAK3(811-1124) came out at 4.4 µM; in test [1], 1.23 µM; on GST-JAK2(808-1132), 0.038 µM; at GST-JAK1(866-1154), 0.26 µM.

For `Cc1cc(-c2cnc3cccc(-c4ccc(CN5CCS(=O)(=O)CC5)c(F)c4)c3n2)ccc1C(=O)N(C)C` [Example 54, 4-{8-[4-(1,1-Dioxido-thiomorpholin-4-ylmethyl)-3-fluoro-phenyl]-quinoxalin-2-yl}-2,N,N-trimethyl-benzamide], the concentration for half-maximal inhibition (IC50) on GST-JAK3(811-1124) is 0.065 µM; in test [1], 0.14 µM; on GST-JAK2(808-1132), less than 0.003 µM; at GST-JAK1(866-1154), 0.017 µM.

`Cc1cc(-c2cnc3cccc(-c4ccc(CN5CCOCC5)c(C(F)(F)F)c4)c3n2)ccc1C(=O)N(C)C` [Example 55, 2,N,N-Trimethyl-4-[8-(4-morpholin-4-ylmethyl-3-trifluoromethyl-phenyl)-quinoxalin-2-yl]-benzamide]: the IC50 at GST-JAK3(811-1124) stood at 4.2 µM; in test [1] it was 3.14 µM; at GST-JAK2(808-1132) it was 0.09 µM; at GST-JAK1(866-1154) it was 1.7 µM.

In the case of `Cc1cc(-c2cnc3cccc(-c4ccc(CN5CCOCC5)c(F)c4)c3n2)ccc1C(=O)N(C)C` [Example 56, 4-[8-(3-Fluoro-4-morpholin-4-ylmethyl-phenyl)-quinoxalin-2-yl]-2,N,N-trimethyl-benzamide], the IC50 at GST-JAK3(811-1124) worked out at 0.57 µM; in test [1], 0.471 µM; on GST-JAK2(808-1132), 0.012 µM; on GST-JAK1(866-1154), 0.15 µM.

On to `Cc1cc(-c2cccc3ncc(-c4ccc(C(=O)N5CCOCC5)c(C)c4)nc23)ccc1CN1CCS(=O)(=O)CC1` [Example 57, (4-{8-[4-(1,1-Dioxido-thiomorpholin-4-ylmethyl)-3-methyl-phenyl]-quinoxalin-2-yl}-2-methyl-phenyl)-morpholin-4-yl-methanone], for which the half-maximal inhibitory concentration (IC50) was 0.17 µM on GST-JAK3(811-1124), 0.163 µM in test [1], less than 0.003 µM at GST-JAK2(808-1132) and 0.08 µM on GST-JAK1(866-1154).
